Laboratory results reported in patent US20050222253A1, “Anti-cancer nitro- and thia-fatty acids” (priority 1999, published 2005).
Entries after “also recorded” stand apart in the source; their conditions may differ. Each block holds one compound with its values, some of them ahead of it.

Experiments:
DU145 cells = experiment: DU145 tumour cell survival (MTS cell proliferation assay); assay type: cell-based, human; settings: for DU145 cell survival, screening test: 20 μM fatty acid, 24 hrs, MTS (FIG. 4); for Anti tumour effect on DU145 tumour cells: various concentrations and times (FIGS. 1, 2); for DU145 cell proliferation: 24 h, MTS assay (FIG. 5A)
Protocol: Lx compounds were tested for activity against two androgen insensitive prostate cancer tumour cell lines, DU145(liver metastases) and PC3(brain metastases). […] Survival was measured using the MTS cell proliferation assay.
Various concentrations for varying amounts of time of Lx compounds were added to either DU145 or PC3 tumour cells in culture. Viability/death of tumour cells was measured by a standard colourimetric assay. […] It is also evident from the results (FIG. 2) that the saturated nitro compound Lx1 (19:0-NO2) is not active and neither is MP2 (β-thia 23:0), a saturated […] fatty acid. […] In a further screening test, the human prostate cell line, DU145 cells (liver metastases), was treated for 24 hrs with 20 μM Fatty Acid and cell survival was measured using the MTS cell proliferation assay. This assay uses colourimetric measurement of substrate conversion to formazan which occurs only in the presence of NADH in a metabolically active cell. There was varied anti-tumour activity amongst the different types of PUFA.
(§1) DU145 cells were treated with PUFA and incubated for 24 h (for the proliferation assay), 4 h (for the caspase assay) and for 18 h (for PARP cleavage).
(§2) Proliferation was quantitated by MTS assay. Caspases 3 and 7 were assayed by a fluorometric assay using a […] substrate. PARP cleavage was measured by Western blots using an anti PARP antibody.

15-LO = target: T1, 15-LO (Glycine max, UniProt P08170); experiment: Effect on 15-LO catalysed oxidation of arachidonic acid; assay type: biochemical, soybean; settings: preliminary experiment, result in words
T1 construct: purchased Sigma Chemical Company
T1 sequence (P08170 1-839): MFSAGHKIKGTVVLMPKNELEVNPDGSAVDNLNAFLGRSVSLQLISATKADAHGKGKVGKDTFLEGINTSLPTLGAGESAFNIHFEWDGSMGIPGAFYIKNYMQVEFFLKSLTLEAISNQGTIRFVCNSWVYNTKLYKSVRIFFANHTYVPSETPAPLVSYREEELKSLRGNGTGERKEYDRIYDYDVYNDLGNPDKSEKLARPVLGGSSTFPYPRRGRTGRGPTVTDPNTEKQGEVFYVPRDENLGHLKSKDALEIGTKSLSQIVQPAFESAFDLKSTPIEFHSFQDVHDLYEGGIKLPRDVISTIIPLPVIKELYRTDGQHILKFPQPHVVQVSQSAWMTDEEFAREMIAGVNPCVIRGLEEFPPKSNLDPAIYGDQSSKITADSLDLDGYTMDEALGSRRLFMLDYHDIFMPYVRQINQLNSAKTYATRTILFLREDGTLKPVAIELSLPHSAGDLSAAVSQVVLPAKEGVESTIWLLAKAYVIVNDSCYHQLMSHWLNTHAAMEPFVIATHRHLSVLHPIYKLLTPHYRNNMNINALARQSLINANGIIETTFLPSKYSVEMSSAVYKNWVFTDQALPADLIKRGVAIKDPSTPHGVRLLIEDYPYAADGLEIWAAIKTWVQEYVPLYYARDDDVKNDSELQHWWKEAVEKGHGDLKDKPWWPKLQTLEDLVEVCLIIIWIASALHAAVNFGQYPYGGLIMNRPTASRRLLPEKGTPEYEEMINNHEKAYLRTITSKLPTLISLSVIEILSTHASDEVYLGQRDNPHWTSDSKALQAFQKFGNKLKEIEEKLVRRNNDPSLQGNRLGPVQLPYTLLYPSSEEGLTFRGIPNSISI

5-LO = 5-LO (Solanum tuberosum, UniProt P37831); experiment: Effect on 5-LO catalysed oxidation of arachidonic acid; assay type: biochemical; settings: preliminary experiment, purified enzyme, result in words
Chain of 5-LO (P37831 whole entry): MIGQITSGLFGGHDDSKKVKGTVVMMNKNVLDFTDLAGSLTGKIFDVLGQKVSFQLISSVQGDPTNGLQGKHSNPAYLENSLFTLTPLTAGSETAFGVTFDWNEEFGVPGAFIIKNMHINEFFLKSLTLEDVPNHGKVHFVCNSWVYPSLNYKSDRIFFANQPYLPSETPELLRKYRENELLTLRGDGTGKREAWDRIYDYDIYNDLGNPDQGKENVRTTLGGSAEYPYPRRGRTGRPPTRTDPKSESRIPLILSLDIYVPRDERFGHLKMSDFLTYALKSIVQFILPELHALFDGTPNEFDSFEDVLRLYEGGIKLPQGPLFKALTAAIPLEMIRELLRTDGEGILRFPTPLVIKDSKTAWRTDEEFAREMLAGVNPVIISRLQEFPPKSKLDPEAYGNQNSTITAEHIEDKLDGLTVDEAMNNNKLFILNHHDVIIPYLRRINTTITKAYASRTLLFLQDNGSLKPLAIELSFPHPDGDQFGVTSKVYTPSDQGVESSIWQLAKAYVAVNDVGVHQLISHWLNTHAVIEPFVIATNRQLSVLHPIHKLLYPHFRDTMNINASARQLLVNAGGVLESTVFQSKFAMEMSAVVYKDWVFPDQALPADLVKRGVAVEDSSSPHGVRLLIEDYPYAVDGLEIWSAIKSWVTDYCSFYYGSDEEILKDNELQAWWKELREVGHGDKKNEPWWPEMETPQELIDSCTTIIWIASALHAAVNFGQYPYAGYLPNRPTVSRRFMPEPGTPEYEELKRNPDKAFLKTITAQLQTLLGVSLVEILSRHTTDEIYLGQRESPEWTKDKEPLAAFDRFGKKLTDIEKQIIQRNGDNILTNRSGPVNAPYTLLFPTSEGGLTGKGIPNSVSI
Protocol: Based on this consideration, 5-LO, 12-LO and 15-LO catalysed oxidation of the nitro compounds (4a, 4b, 6a, 6b, 8a and 8b) was investigated. Each of the nitro compounds was treated with 15-LO in pH 9.0 buffer (or 5-LO in pH 6.3 buffer and 12-LO in pH 7.4 buffer), and the formation of 15-hydroperoxy derivatives (or 5-hydroperoxy or 12-hydroperoxy derivatives) over time was monitored by LW spectroscopy at 234 nm. […]

12-LO = target: T2, 12-LO (Sus scrofa, UniProt P16469); experiment: Effect on 12-LO catalysed oxidation of arachidonic acid; assay type: biochemical, porcine; settings: preliminary experiment, result in words
T2 construct: purchased Cayman Chemical Company
T2 sequence (P16469 1-663): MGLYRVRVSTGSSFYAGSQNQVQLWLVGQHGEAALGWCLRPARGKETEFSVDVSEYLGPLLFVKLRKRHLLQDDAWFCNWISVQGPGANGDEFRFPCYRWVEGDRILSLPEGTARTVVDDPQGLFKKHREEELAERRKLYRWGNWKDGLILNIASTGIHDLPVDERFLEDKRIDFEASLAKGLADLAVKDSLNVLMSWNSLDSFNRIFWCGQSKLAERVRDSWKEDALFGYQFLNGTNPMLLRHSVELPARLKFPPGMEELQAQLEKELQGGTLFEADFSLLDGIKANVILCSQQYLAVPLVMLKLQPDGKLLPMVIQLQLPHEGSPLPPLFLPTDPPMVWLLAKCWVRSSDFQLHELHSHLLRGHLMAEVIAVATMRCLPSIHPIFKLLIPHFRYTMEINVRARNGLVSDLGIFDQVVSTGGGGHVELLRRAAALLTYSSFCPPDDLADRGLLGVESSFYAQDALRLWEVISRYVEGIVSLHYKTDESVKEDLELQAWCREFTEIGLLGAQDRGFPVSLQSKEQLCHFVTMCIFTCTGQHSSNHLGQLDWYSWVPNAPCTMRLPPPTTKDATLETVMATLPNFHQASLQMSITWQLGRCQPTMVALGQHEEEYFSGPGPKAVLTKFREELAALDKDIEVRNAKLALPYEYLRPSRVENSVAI
Protocol: Based on this consideration, 5-LO, 12-LO and 15-LO catalysed oxidation of the nitro compounds (4a, 4b, 6a, 6b, 8a and 8b) was investigated. Each of the nitro compounds was treated with 15-LO in pH 9.0 buffer (or 5-LO in pH 6.3 buffer and 12-LO in pH 7.4 buffer), and the formation of 15-hydroperoxy derivatives (or 5-hydroperoxy or 12-hydroperoxy derivatives) over time was monitored by LW spectroscopy at 234 nm.
A number of Lx compounds were tested for anti 5-LOX and 12-LOX activities in the human breast cancer cell line, MCF-7. […] The ability of 5-LOX and 12-LOX to produce oxidated products of 20:4n-6 with a different absorption wavelength in the presence of nitroso-PUFA was examined and is shown in the progress curves in FIG. 6. […] Within cells, activation of 5-LOX is facilitated by 5-LOX activating protein (FLAP). Thus, in intact cells, Lx7 and Lx9 may be able to activate 5-LOX at lower concentrations than those required in the purified enzyme system shown in FIG. 6. […] By being able to activate 5-LOX and suppress 12-LOX, these compounds have the desired characteristics of anti-breast cancer agents as discussed previously.
15-LO was obtained from Sigma Chemical Company, and 12-LO from Cayman Chemical Company. Arachidonic acid 1, linolenyl alcohol 57a, gamma linolenyl alcohol 5b, arachidonyl alcohol 57c and docosahexaenyl alcohol 57d were purchased from Nu-Chek Prep. Inc. Elysian, Minn., USA. Other chemicals were commercially available from Aldrich Chemical Company.

Caspases 3 and 7 = experiment: Caspase 3 and 7 fluorometric assay in DU145 cells; assay type: cell-based, human; settings: for Activation of caspases: DU145 cells, 4 h (FIG. 5B); for Induction of apoptosis in DU145 cells: concluded from caspase activation and PARP cleavage
Protocol: as §1, §2

PARP = PARP cleavage by Western blot in DU145 cells; assay type: cell-based, human; settings: 18 h, anti PARP antibody (FIG. 5C)
Protocol: as §1, §2

MCF-7 cells = experiment: Killing of MCF-7 breast cancer cells in vitro; assay type: cell-based, human; settings: in vitro (FIG. 7); compared with 20:4n-6 toxicity
Text: While interference with 5-LOX or 12-LOX activity individually impacts on growth rates of human breast cancer MCF-7 cells^(55,56), the simultaneous modification of the activities of both enzymes at once may cause death. […] Lx4, a nitroso-compound with the same number of carbon atoms and degree of unsaturation as Lx9 but lacking a COOH group, was ineffective (FIG. 7).

Structure (SMILES): CCCCC/C=C\C/C=C\C/C=C\CCCCCSCC(=O)O [MP9]
- DU145 cell survival, screening test (DU145 cells): most active

- Effect on 15-LO catalysed oxidation of AA (15-LO): Nil
Structure (SMILES): CC/C=C\C/C=C\C/C=C\CCCCCCCC[N+](=O)[O-] [Lx2, (z,z,z)-1-Nitro-9,12,15-octadecatriene]

Structure (SMILES): CCCCC/C=C\C/C=C\C/C=C\CCCCCSCCC(=O)O [MP12]
- DU145 cell survival, screening test (DU145 cells): most active

Structure (SMILES): CC/C=C\C/C=C\C/C=C\C/C=C\C/C=C\C/C=C\CCC(=O)NCC(=O)O [PTS]
- DU145 cell survival, screening test (DU145 cells): some activity

Structure (SMILES): CCC=CCC=CCC=CCC=CCC=CCC=CCCCOCC(=O)O [MP6]
- DU145 cell survival, screening test (DU145 cells): most active

- melting point: 166 to 167 °C
Structure (SMILES): CCCCCCCCCCCCCC[S+]([O-])CCC(=O)O (stereo not drawn) [Compound 113, 3-(tetradecylsulfinyl) propionic acid]

Structure (SMILES): CCCCC/C=C\C/C=C\C/C=C\C/C=C\CCCCSCC(=O)O [MP8, (all-Z)-(eicosa-5,8,11,14-tetraenylthio) acetic acid]
- DU145 cell survival, screening test (DU145 cells): highly active

Structure (SMILES): CCC=CCC=CCC=CCCCCCCCCSCC(=O)O [MP10]
- DU145 cell survival, screening test (DU145 cells): most active

Structure (SMILES): CCCCCCCCCCCCCCCCCC[N+](=O)[O-] [Lx1, 1-Nitrooctadecane]
- Effect on 5-LO catalysed oxidation of AA (5-LO): Nil
- Effect on 12-LO catalysed oxidation of AA (12-LO): Nil
- Anti tumour effect on DU145 tumour cells (DU145 cells): not active
- Effect on 15-LO catalysed oxidation of AA (15-LO): Nil

- Effect on 15-LO catalysed oxidation of AA (15-LO): Nil
Structure (SMILES): CC/C=C\C/C=C\C/C=C\C/C=C\C/C=C\C/C=C\CCC[N+](=O)[O-] [Lx5, (all-z)-1-Nitro-4,7,10,13,16,19-docosahexaene]

Structure (SMILES): CCCCC/C=C\C/C=C\C/C=C\C/C=C\CCCCOCC(=O)O [MP3]
- DU145 cell survival, screening test (DU145 cells): highly active
- DU145 cell proliferation (DU145 cells): marked inhibition of cell proliferation
- Activation of caspases (Caspases 3 and 7): activation of caspases
- Induction of apoptosis in DU145 cells (Caspases 3 and 7): induce apoptosis
- PARP cleavage (PARP): cleavage of PARP

Structure (SMILES): CCCCCCCCCCCCCCCCCC(CCC(=O)O)[N+](=O)[O-] (stereo not drawn) [Lx6, 4-Nitrohenicosanoic acid]
- Effect on 5-LO catalysed oxidation of AA (5-LO): Inhibitory
- Effect on 5-LO catalysed oxidation of AA (5-LO; listed as 4-nitrohenicosanoic acid): selective inhibitors
- Effect on 5-LO catalysed oxidation of AA (5-LO; listed as 6a): inhibiting 5-LO
- Effect on 12-LO catalysed oxidation of AA (12-LO): Activatory
- Killing of DU145 tumour cells (DU145 cells; 15 μM, after 24 hours of culture (FIG. 2)): killing of all the tumour cell population
- Anti tumour effect on DU145 tumour cells (DU145 cells): concentration and time related effects
- Effect on 15-LO catalysed oxidation of AA (15-LO): Activatory
- Effect on 15-LO catalysed oxidation of AA (15-LO; listed as 6a): not 15-LO

Structure (SMILES): CCCCC/C=C\C/C=C\C/C=C\C/C=C\CCCC[N+](=O)[O-] [Lx4, (all-z)-1-Nitro-5,8,11,14-eicosatetraene]
- Effect on 5-LO catalysed oxidation of AA (5-LO): Nil
- Effect on 12-LO catalysed oxidation of AA (12-LO): Nil
- Killing of MCF-7 tumour cells (MCF-7 cells): ineffective
- Effect on 15-LO catalysed oxidation of AA (15-LO): Nil

- Effect on 15-LO catalysed oxidation of AA (15-LO): Nil
Structure (SMILES): CCCCC/C=C\C/C=C\C/C=C\CCCCC[N+](=O)[O-] [Lx3, (z,z,z)-1-Nitro-6,9,12-octadecatriene]

Structure (SMILES): CC/C=C\C/C=C\C/C=C\CCCCCCCCSCCC(=O)O [MP13, 3-[(Z,Z,Z)-(octadeca-9,12,15-trienylthio)]propionic acid]
- DU145 cell survival, screening test (DU145 cells): highly active

Structure (SMILES): CC/C=C\C/C=C\C/C=C\CCCCCCCCOCC(=O)O [MP5, (Z,Z,Z)-(octadeca-9,12,15-trienyloxy) acetic acid]
- DU145 cell proliferation (DU145 cells): marked inhibition of cell proliferation
- Activation of caspases (Caspases 3 and 7): activation of caspases
- Induction of apoptosis in DU145 cells (Caspases 3 and 7): induce apoptosis
- PARP cleavage (PARP): cleavage of PARP

Structure (SMILES): CCCCC/C=C\C/C=C\C/C=C\C/C=C\CCCC(CCC(=O)O)(CCC(=O)O)[N+](=O)[O-] [Lx9, 3-[(all-Z)-Nonadeca-4,7,10,13-tetraenyl]-3-nitropentane-1,5-dicarboxylic acid]
- Effect on 5-LO catalysed oxidation of AA (5-LO): can activate 5-LOX; also recorded: Activatory
- Effect on 12-LO catalysed oxidation of AA (12-LO): direct, potent and rapid inhibitor of 12-LOX; also recorded: Inhibitory
- Effect on 12-LO catalysed oxidation of AA (12-LO; listed as 3-(all-Z)-nonadeca-4,7,10,13-tetraenyl]-3-nitropentane-1,5-dicarboxylic acid): selective inhibitors
- Effect on 12-LO catalysed oxidation of AA (12-LO; listed as 8b): significant inhibitory effect
- Killing of MCF-7 tumour cells (MCF-7 cells): kill these tumour cells
- Effect on 15-LO catalysed oxidation of AA (15-LO): Nil
